Consider 4 molecules from ChEMBL document CHEMBL1148618, “Novel benzodiazepine photoaffinity probe stereoselectively labels a site deep within the membrane-spanning domain of the cholecystokinin receptor” (J Med Chem, 2006).

For assay [1], the target named is T1, Cholecystokinin receptor type A (Rattus norvegicus) (UniProt P30551).
T1 sequence (whole entry): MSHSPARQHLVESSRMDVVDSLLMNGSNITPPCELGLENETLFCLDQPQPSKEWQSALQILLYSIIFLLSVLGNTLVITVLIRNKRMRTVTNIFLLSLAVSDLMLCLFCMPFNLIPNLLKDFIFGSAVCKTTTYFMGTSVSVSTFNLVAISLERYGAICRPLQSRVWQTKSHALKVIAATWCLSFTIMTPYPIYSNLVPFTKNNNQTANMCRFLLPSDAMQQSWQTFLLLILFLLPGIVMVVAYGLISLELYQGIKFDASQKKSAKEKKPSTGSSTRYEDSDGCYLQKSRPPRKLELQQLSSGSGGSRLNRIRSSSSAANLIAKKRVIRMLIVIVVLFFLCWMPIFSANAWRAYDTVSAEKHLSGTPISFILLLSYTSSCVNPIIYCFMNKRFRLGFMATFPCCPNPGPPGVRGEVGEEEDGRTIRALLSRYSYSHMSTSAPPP
Briefly: Activity at CCK receptor in SD rat at 1 uM expressed in pancreatic acinar cell line. Format: functional. As to conditions: filed as antagonist.

Assay [2] concerns the target T2, Cholecystokinin receptor type A (Rattus norvegicus, UniProt P30551).
T2 sequence (P30551 whole entry): T1 sequence (whole entry)
In words: Displacement of [125I]D-Tyr-Gly-[(Nle28,31)CCK-26-33] from rat CCK receptor expressed in CHO cells. Format: cell-based.

Assay [3] addresses T2, Cholecystokinin receptor type A. Briefly: Intrinsic agonistic activity at CCK receptor in SD rat at 1 uM expressed in pancreatic acinar cell line. Format: functional.

A word on the IC50: it is the concentration at which inhibition is half-maximal. On to `COc1ccc(N(C(=O)CN2C(=O)[C@@H](NC(=O)Nc3cccc(C(=O)c4ccccc4)c3)C(=O)N(c3ccccc3)c3ccccc32)C(C)C)cc1`, for which, in assay [1], the Activity entry was “Antagonist”. The same molecule registered an IC50 in assay [2] of 710 nM.

`COc1ccc(N(C)C(=O)CN2C(=O)[C@H](NC(=O)Nc3cccc(C(=O)c4ccccc4)c3)C(=O)N(c3ccccc3)c3ccccc32)cc1` displayed an IC50 in assay [2] of 490 nM.

One may read the EC50 as the concentration that produces a half-maximal response. `COc1ccc(N(C(=O)CN2C(=O)[C@H](NC(=O)Nc3cccc(C(=O)c4ccccc4)c3)C(=O)N(c3ccccc3)c3ccccc32)C(C)C)cc1`: the EC50 in assay [3] came to 150 nM. In assay [2], this molecule yielded an IC50 of 61 nM.

Consider `COc1ccc(N(C)C(=O)CN2C(=O)[C@@H](NC(=O)Nc3cccc(C(=O)c4ccccc4)c3)C(=O)N(c3ccccc3)c3ccccc32)cc1`, for which the IC50 in assay [2] came out at 470 nM.
